Measurements as given in ChEMBL document CHEMBL5247589, “Natural occurrence, bioactivity, and biosynthesis of triene-ansamycins” (Eur J Med Chem, 2022).
Converted amounts (≈) assume the structure as drawn.

Experiments:
HeLa [1] = test: Antitumor activity against human HeLa cells assessed as cell growth inhibition incubated for 3 days; assay type: functional, cell-based; settings: 72 h
C-33-A [2] = test: Antitumor activity against human C33A cells assessed as cell growth inhibition incubated for 3 days; assay type: functional, cell-based; settings: 72 h
COLO 201 = test: Antitumor activity against human COL0201 cells assessed as cell growth inhibition incubated for 3 days; assay type: functional, cell-based; settings: COLO 201, 72 h
MCF7 [3] = test: Antitumor activity against human MCF7 cells assessed as cell growth inhibition incubated for 3 days; assay type: functional, cell-based; settings: MCF7, 72 h
PANC-1 [4] = test: Antitumor activity against human PANC-1 cells incubated for 48 to 72 hrs by MTS Assay; assay type: functional, cell-based
Capan-2 = test: Antitumor activity against human Capan-2 cells incubated for 48 to 72 hrs by MTS Assay; assay type: functional, cell-based
BXPC-3 = test: Antitumor activity against human BXPC-3 cells incubated for 48 to 72 hrs by MTS Assay; assay type: functional, cell-based
PANC-1 [5] = test: Antitumor activity against human PANC-1; assay type: functional, cell-based; settings: pooled result: one value given for 3 cell lines, strains, targets or settings
PC-3 [6] = test: Antiproliferative activity against human PC3 cells assessed as cell viability incubated for 48 hrs by Cell Counting Kit-8 assay; assay type: functional, cell-based; settings: PC-3, 48 h
HepG2 [7] = test: Antiproliferative activity against human HepG2 cells assessed as cell viability incubated for 48 hrs by Cell Counting Kit-8 assay; assay type: functional, cell-based; settings: HepG2, 48 h
[8] = Antiproliferative activity against human U87 cells overexpressing miR-9 assessed as cell viability incubated for 48 hrs by Cell Counting Kit-8 assay; assay type: functional, cell-based, U-87MG ATCC; settings: U-87 MG
HepG2 [9] = test: Antitumor activity against human HepG2 incubated for 48 hrs by MTT assay; assay type: functional, cell-based; settings: HepG2, 48 h
MCF7 [10] = test: Antitumor activity against human MCF-7 incubated for 48 hrs by MTT assay; assay type: functional, cell-based; settings: MCF7, 48 h
HepG2 [11] = test: Antitumor activity against human HepG2 cells incubated for 72 hrs by SRB calorimetric assay; assay type: functional, cell-based; settings: HepG2, 72 h
PC-3 [12] = test: Antitumor activity against human PC-3 cells incubated for 72 hrs by SRB calorimetric assay; assay type: functional, cell-based; settings: PC-3, 72 h
A549 = test: Antitumor activity against human A549 cells incubated for 72 hrs by MTT assay; assay type: functional, cell-based; settings: A549, 72 h
MCF7 [13] = test: Antitumor activity against human MCF7 cells incubated for 72 hrs by MTT assay; assay type: functional, cell-based; settings: MCF7, 72 h
K562 = test: Antitumor activity against human K562 cells incubated for 24 hrs by CCK-8 assay; assay type: functional, cell-based; settings: K562, 24 h
NCI-H1299 = test: Antiproliferative activity against human H1299 cells incubated for 72 hrs by absorbance based assay; assay type: functional, cell-based; settings: NCI-H1299, 72 h
HeLa [14] = test: Antiproliferative activity against human HeLa cells incubated for 72 hrs by absorbance based assay; assay type: functional, cell-based
HeLa [15] = test: Antitumor activity against human HeLa cells; assay type: functional, cell-based
HT-29 = test: Antitumor activity against human HT29 cells; assay type: functional, cell-based
U-937 = test: Antitumor activity against human U937 cells; assay type: functional, cell-based
HCT-116 = test: Antitumor activity against human HCT116 cells; assay type: functional, cell-based
HL-60 = test: Antitumor activity against human HL60 cells; assay type: functional, cell-based
THP-1 = test: Antitumor activity against human THP1 cells; assay type: functional, cell-based
B16 = test: Antitumor activity against mouse B-16 cells; assay type: functional, cell-based
HeLa [16] = test: Antitumor activity against human HeLa cells assessed as cell growth inhibition incubated for 5 days by MTT assay; assay type: functional, cell-based; settings: 120 h
Ca-Ski = test: Antitumor activity against human Ca-Ski cells assessed as cell growth inhibition incubated for 5 days by MTT assay; assay type: functional, cell-based; settings: 120 h
C-33-A [17] = test: Antitumor activity against human C-33-A cells assessed as cell growth inhibition incubated for 5 days by MTT assay; assay type: functional, cell-based; settings: 120 h
HT-3 = test: Antitumor activity against human HT-3 cells assessed as cell growth inhibition incubated for 5 days by MTT assay; assay type: functional, cell-based; settings: HT-3, 120 h
SiHa = test: Antitumor activity against human SiHa cells assessed as cell growth inhibition incubated for 5 days by MTT assay; assay type: functional, cell-based; settings: 120 h
L5178Y = test: Cytotoxicity against mouse L5178Y; assay type: toxicity, cell-based

Q: For `CO[C@H]1/C=C/C=C/C=C/C[C@H](OC(=O)[C@@H](C)NC(=O)C2CCCCC2)[C@H](C)[C@@H](O)/C(C)=C\CCc2c(O)c(cc3c2SCC(=O)N3)NC(=O)C1`, which IC50 (HeLa [1]) is on record?
A: The IC50 was 18 nM.

Q: And the IC50 (C-33-A [2])?
A: Its IC50 is 18 nM.

Q: And the IC50 (COLO 201)?
A: Its IC50 is 18 nM.

Q: What about the IC50 (MCF7 [3]) of the same molecule?
A: The IC50 was 18 nM.

Q: What does the source list for `C/C=C(\C)C(=O)N[C@H](C)C(=O)O[C@H]1C/C=C/C=C/C=C/[C@H](OC)CC(=O)Nc2cc(O)cc(c2)CC/C=C(/C)[C@H](O)[C@H]1C`?
A: IC50 (PANC-1 [4]): ≥ 10000 nM; IC50 (Capan-2): ≥ 10000 nM; IC50 (BXPC-3): ≥ 10000 nM

Q: Which IC50 (PANC-1 [5]) does the source give for `CC[C@H](C)C(=O)N[C@H](C)C(=O)O[C@H]1C/C=C/C=C/C=C/[C@H](OC)CC(=O)Nc2cc(O)cc(c2)CC/C=C(/C)[C@H](O)[C@H]1C` here?
A: Its IC50 is 340 nM.

Q: For `CO[C@@H]1CC(=O)Nc2c(O)c3cc4c2[C@H]1[C@@H](/C=C/C=C/C[C@H](O)[C@H](C)[C@@H](OC(=O)[C@@H](C)NC(=O)C1CCCCC1)/C(C)=C\CC3)O4`, which IC50 (PC-3 [6]) is on record?
A: The IC50 was > 10000 nM.

Q: And the IC50 (HepG2 [7])?
A: Its IC50 is > 10000 nM.

Q: What about the IC50 [8] of the same molecule?
A: Its IC50 is > 10000 nM.

Q: Which IC50 (HepG2 [9]) does the source give for `CO[C@H]1/C=C/C=C/C=C/C[C@H](OC(=O)[C@@H](C)NC(=O)C2=CCCC2)[C@H](C)[C@@H](O)/C(C)=C\CCc2cc(O)cc(c2)NC(=O)C1` here?
A: Its IC50 is 6740 nM.

Q: What about the IC50 (MCF7 [10]) of the same molecule?
A: The IC50 was 6740 nM.

Q: Which IC50 (HepG2 [11]) does the source give for `CCCC(=O)N[C@H](C)C(=O)O[C@H]1C/C=C/C=C/C=C/[C@H](OC)CC(=O)Nc2cc(O)cc(c2)CC/C=C(/C)[C@H](O)[C@H]1C` here?
A: Its IC50 is 2040 nM.

Q: What about the IC50 (PC-3 [12]) of the same molecule?
A: The IC50 was 2040 nM.

Q: And the IC50 (PANC-1 [4])?
A: Its IC50 is 2040 nM.

Q: And the IC50 (Capan-2)?
A: The IC50 was 2040 nM.

Q: And the IC50 (BXPC-3)?
A: Its IC50 is 2040 nM.

Q: Which results are given for `CO[C@H]1/C=C/C=C/C=C/C[C@H](O)[C@H](C)[C@@H](O)/C(C)=C\CCc2cc(O)cc(c2)NC(=O)C1`?
A: IC50 (A549): > 10000 nM; IC50 (MCF7 [13]): > 10000 nM; IC50 (K562): > 10000 nM

Q: For `CO[C@H]1/C=C/C=C/C=C/C[C@H](OC(=O)[C@@H](C)NC(=O)CCC(C)C)[C@H](C)[C@@H](O)/C(C)=C\CCc2cc(O)cc(c2)NC(=O)C1`, which IC50 (PANC-1 [5]) is on record?
A: Its IC50 is 170 nM.

Q: For `CO[C@@H]1CC(=O)N2c3cc(O)cc4c3O[C@@H](/C=C/C=C/C[C@H](O)[C@H](C)[C@@H](O)/C(C)=C\CC4)[C@@H]12`, which IC50 (NCI-H1299) is on record?
A: The IC50 was > 10000 nM.

Q: What about the IC50 (HeLa [14]) of the same molecule?
A: The IC50 was 10000 nM.

Q: For `CO[C@H]1/C=C/C=C/C=C/C[C@H](OC(=O)C2(NC(=O)C3=CCCCC3)CC2)[C@H](C)[C@@H](O)/C(C)=C\CCc2c(O)c(cc3c2SCC(=O)N3)NC(=O)C1`, which IC50 (HeLa [15]) is on record?
A: The IC50 was 300 nM.

Q: And the IC50 (HT-29)?
A: Its IC50 is 300 nM.

Q: What about the IC50 (U-937) of the same molecule?
A: Its IC50 is 300 nM.

Q: What about the IC50 (HCT-116) of the same molecule?
A: Its IC50 is 300 nM.

Q: And the IC50 (HL-60)?
A: Its IC50 is 300 nM.

Q: What about the IC50 (THP-1) of the same molecule?
A: The IC50 was 300 nM.

Q: What about the IC50 (B16) of the same molecule?
A: Its IC50 is 300 nM.

Q: Which results are given for `CO[C@H]1/C=C/C=C/C=C/C[C@H](OC(=O)[C@@H](C)NC(=O)C2CCCCC2)[C@H](C)[C@@H](O)/C(C)=C\CCC2=C(O)C(=O)C=C(NC(=O)C1)C2=O`?
A: IC50 (HeLa [16]): 70 nM; IC50 (Ca-Ski): 70 nM; IC50 (C-33-A [17]): 70 nM; IC50 (HT-3): 70 nM; IC50 (SiHa): 70 nM

Q: Which IC50 (HeLa [15]) does the source give for `CO[C@H]1/C=C/C=C/C=C/C[C@H](OC(=O)C2(NC(=O)C3=CCCCC3)CC2)[C@H](C)[C@@H](O)/C(C)=C\CCc2cc3c(c(c2O)NC(=O)C1)SCC(=O)N3` here?
A: Its IC50 is 50 nM.

Q: And the IC50 (HT-29)?
A: The IC50 was 50 nM.

Q: What about the IC50 (U-937) of the same molecule?
A: The IC50 was 50 nM.

Q: And the IC50 (HCT-116)?
A: Its IC50 is 50 nM.

Q: And the IC50 (HL-60)?
A: The IC50 was 50 nM.

Q: And the IC50 (THP-1)?
A: Its IC50 is 50 nM.

Q: And the IC50 (B16)?
A: The IC50 was 50 nM.

Q: Which MIC (L5178Y) does the source give for `CO[C@H]1/C=C/C=C/C=C/C[C@H](O)[C@H](C)[C@@H](O)/C(C)=C\CCc2cc(O)cc(c2O)NC(=O)C1` here?
A: The MIC was 7 µM (≈ 3.2 µg/mL).

Q: With `CO[C@H]1/C=C/C=C/C=C/C[C@H](OC(=O)[C@@H](C)NC(=O)C2CCCCC2)[C@H](C)[C@@H](O)/C(C)=C\CCc2cc(O[C@@H]3O[C@H](CO)[C@@H](O)[C@H](O)[C@H]3O)cc(c2O)NC(=O)C1` as the molecule, how does the MIC (L5178Y) read?
A: Its MIC is 1 µM (≈ 0.801 µg/mL).

Q: Which MIC (L5178Y) does the source give for `CO[C@H]1/C=C/C=C/C=C/C[C@H](OC(=O)[C@@H](C)NC(=O)C2CCCC(O)C2)[C@H](C)[C@@H](O)/C(C)=C\CCc2cc(O)cc(c2O)NC(=O)C1` (stereo not given in full) here?
A: The MIC was 4.89 µM (≈ 3.2 µg/mL).

Q: With `CO[C@H]1/C=C/C=C/C=C/C[C@H](OC(=O)[C@@H](C)NC(=O)CC(C)C)[C@H](C)[C@@H](O)/C(C)=C\CCc2c(O)c(cc3c2SCC(=O)N3)NC(=O)C1` as the molecule, how does the IC50 (HeLa [1]) read?
A: Its IC50 is 150 nM.

Q: What about the IC50 (C-33-A [2]) of the same molecule?
A: The IC50 was 150 nM.

Q: What about the IC50 (COLO 201) of the same molecule?
A: The IC50 was 150 nM.

Q: What about the IC50 (MCF7 [3]) of the same molecule?
A: The IC50 was 150 nM.
